Target: Metabotropic glutamate receptor 4 (Rattus norvegicus) (UniProt P31423)
Assay: PubChem AID 623906
Details: rat mGlu4 cells, thallium flux, glutamate CRC fold shift, at 10 µM, stronger effect = higher value

Sequence of Metabotropic glutamate receptor 4 (Rattus norvegicus) (P31423 whole entry, looked up): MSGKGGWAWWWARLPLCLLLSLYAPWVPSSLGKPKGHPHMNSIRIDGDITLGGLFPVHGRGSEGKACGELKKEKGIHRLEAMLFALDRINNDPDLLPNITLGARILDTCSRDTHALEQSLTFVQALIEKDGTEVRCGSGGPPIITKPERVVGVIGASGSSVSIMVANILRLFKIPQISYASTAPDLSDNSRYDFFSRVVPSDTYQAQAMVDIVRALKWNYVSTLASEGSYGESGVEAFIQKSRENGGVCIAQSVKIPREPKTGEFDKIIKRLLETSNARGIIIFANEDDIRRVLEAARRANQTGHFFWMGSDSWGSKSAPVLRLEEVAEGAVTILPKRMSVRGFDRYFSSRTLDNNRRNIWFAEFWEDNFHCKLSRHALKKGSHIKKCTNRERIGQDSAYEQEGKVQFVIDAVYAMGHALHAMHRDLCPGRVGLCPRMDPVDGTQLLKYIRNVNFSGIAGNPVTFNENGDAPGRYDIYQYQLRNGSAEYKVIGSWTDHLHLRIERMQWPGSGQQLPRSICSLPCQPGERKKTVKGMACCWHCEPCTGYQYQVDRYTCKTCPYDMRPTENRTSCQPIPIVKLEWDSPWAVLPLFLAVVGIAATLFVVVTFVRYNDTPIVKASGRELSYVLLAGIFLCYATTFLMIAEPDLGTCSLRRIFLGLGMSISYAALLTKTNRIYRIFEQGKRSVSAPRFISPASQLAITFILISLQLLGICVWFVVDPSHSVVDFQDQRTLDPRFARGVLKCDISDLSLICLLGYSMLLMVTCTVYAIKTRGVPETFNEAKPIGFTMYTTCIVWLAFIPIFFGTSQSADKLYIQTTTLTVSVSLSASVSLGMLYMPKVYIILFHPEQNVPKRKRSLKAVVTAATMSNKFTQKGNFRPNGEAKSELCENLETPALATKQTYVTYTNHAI

fold shift: 16.5
glutamate max response (glutamate max with compound): 96.9%
Compound: O=C(Nc1cccc(Cl)c1)c1ccccn1

Source: PubChem BioAssay AID623906 (Vanderbilt Specialized Chemistry Center, 2012)
